Here are results for 22 compounds from BindingDB's records for doi:10.1016/j.bmc.2011.12.011 (University of Auckland, 2012).

Experiment [1] can be described thus: Inhibition of recombinant perforin-mediated lysis of Jurkat cells assessed as [51Cr] release preincubated with perforin for 30 mins followed by incubation with [51Cr]-labeled Jurkat cells by gamma counting.
In experiment [2] the target is T1, Perforin-1 (Homo sapiens, UniProt P14222).
T1 sequence (P14222 whole entry): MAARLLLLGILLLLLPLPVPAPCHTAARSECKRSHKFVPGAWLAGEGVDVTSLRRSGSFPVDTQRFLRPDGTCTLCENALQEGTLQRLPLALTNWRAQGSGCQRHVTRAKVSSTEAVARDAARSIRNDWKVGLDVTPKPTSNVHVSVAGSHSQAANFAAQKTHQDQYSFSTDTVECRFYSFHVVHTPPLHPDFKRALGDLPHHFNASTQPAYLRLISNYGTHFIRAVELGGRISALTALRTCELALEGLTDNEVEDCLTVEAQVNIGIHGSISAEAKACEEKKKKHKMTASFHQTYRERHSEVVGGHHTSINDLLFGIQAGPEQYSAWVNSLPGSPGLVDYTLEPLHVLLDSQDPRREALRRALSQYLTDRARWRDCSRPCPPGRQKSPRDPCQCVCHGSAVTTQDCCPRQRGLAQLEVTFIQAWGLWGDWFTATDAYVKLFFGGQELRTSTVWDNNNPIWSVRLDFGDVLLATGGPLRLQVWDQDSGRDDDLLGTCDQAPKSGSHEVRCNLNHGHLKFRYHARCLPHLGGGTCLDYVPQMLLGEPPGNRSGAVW
Description: Inhibition of recombinant perforin-mediated lysis of Jurkat cells assessed as [51Cr] release preincubated with perforin for 30 mins followed by incubation with [51Cr]-labeled Jurkat cells by gamma counting.

In the case of `O=C1NC(=S)NC1=Cc1cc2cc(-c3ccc4c(c3)COC4=O)ccc2[nH]1`, the IC50 in experiment [1] came out at 0.82 µM.

On to `O=C1NC(=O)C(=Cc2ccc(-c3ccc4c(c3)COC4=O)s2)S1`, for which, in experiment [1], the IC50 was 1.12 µM.

As for `O=C1NC(=S)NC1=Cc1ccc2cc(-c3ccc4c(c3)COC4=O)ccc2n1`, in experiment [1], the IC50 worked out at 0.47 µM.

Turning to `CN1C(=O)C(=Cc2ccc(-c3ccc4c(c3)COC4=O)s2)C(=O)N(C)C1=O`, the IC50 in experiment [1] turned out to be 3.96 µM.

Regarding `CC(=O)c1ccc(-c2ccc3c(c2)COC3=O)s1`, in experiment [1], the IC50 was > 20 µM.

On to `O=Cc1ccc(-c2ccc3c(c2)COC3=O)s1`, for which the IC50 in experiment [1] was found to be 6.31 µM.

Turning to `O=C(O)Cc1ccc(-c2ccc3c(c2)COC3=O)s1`, in experiment [1], the IC50 was > 20 µM.

On to `O=C1NC(=S)NC1=Cc1ccc(-c2ccc3c(c2)COC3=O)s1`, for which the IC50 in experiment [1] came out at 0.78 µM.

Regarding `O=C(NCC=Cc1[nH]c(=S)[nH]c1O)c1ccc2c(c1)COC2=O`, the IC50 in experiment [2] was > 20 µM.

In the case of `O=C1NC(=S)NC(=O)C1=Cc1ccc(-c2ccc3c(c2)COC3=O)s1`, the IC50 in experiment [1] worked out at 0.4 µM.

For the compound `O=C1NC(=S)NC1=Cc1nc(-c2ccc3c(c2)COC3=O)cs1`, the IC50 in experiment [1] was 1.41 µM.

For the compound `O=C1OCc2cc(-c3ccc(-c4cnco4)s3)ccc21`, in experiment [1], the IC50 amounted to 3.18 µM.

For the compound `O=C1NC(=S)NC1=Cc1ccc(-c2ccc3c(c2)COC3=O)nc1`, in experiment [1], the IC50 stood at 2 µM.

Take `O=C1NC(=S)NC1=Cc1csc(-c2ccc3c(c2)COC3=O)n1`: in experiment [1], the IC50 amounted to 0.34 µM.

In the case of `O=C1NC(=S)NC1=Cc1ccc(-c2ccc3c(c2)COC3=O)[nH]1`, in experiment [1], the IC50 turned out to be 2.45 µM.

For the compound `COC(=O)Cc1ccc(-c2ccc3c(c2)COC3=O)s1`, in experiment [1], the IC50 was > 20 µM.

As to `O=C1NCCCC1=Cc1ccc(-c2ccc3c(c2)COC3=O)s1`, the concentration for half-maximal inhibition (IC50) in experiment [1] turned out to be 15.2 µM.

With `O=C1NC(=S)NC1=Cc1cc2cc(-c3ccc4c(c3)COC4=O)ccc2o1`, the IC50 in experiment [1] amounted to 0.51 µM.

In the case of `O=C1NC(=S)SC1=Cc1ccc(-c2ccc3c(c2)COC3=O)s1`, in experiment [1], the IC50 was > 10 µM.

With `O=C1NC(=O)C(=Cc2ccc(-c3ccc4c(c3)COC4=O)s2)C(=O)N1`, in experiment [1], the IC50 turned out to be 0.8 µM.

With `O=C1OCc2cc(-c3cccs3)ccc21`, the half-inhibitory concentration (IC50) in experiment [1] is > 20 µM.

For the compound `O=C1NC(=S)NC1=Cc1cc(-c2ccc3c(c2)COC3=O)ns1`, the IC50 in experiment [1] was 1.44 µM.

As a reminder, the IC50 is the concentration that gives 50% inhibition.
